Reference: patent US20240067604A1, “COMBINATIONS OF IRS/STAT3 DUAL MODULATORS AND ANTI PD-1/PD-L1 ANTIBODIES FOR TREATING CANCER” (TYRNOVO LTD., priority 2017, published 2024)

Test system: esophagogastric junction adenocarcinoma patient-derived xenograft (PDX)
Assay: Patient-derived xenograft (PDX) of esophagogastric junction adenocarcinoma in NodScid mice supplemented with PBMCs from the same patient (double autologous)
Format: in vivo, NodScid mice (human tumor and PBMCs)
Conditions: PDX SC in NodScid mice + patient PBMCs; Compound 4 70 mg/kg IV and/or Keytruda 6 mg/kg IP on days 0, 5 and 11; treatment started at ~160 mm^3; sacrificed on day 18
Description: Patient-derived xenograft (PDX) of esophagogastric junction adenocarcinoma biopsy subcutaneous (SC) implanted into NodScid mice. At the first day of treatment peripheral blood mononuclear cells (PBMCs) from the same patient were intravenous injected to the mice (double autologous).
Fresh human primary esophagogastric junction adenocarcinoma biopsy was subcutaneously (SC) implanted into NSG mice (P0).
Subcutaneous implantation of human primary tumor biopsy into NodScid mice.
The tumor (P3) was extracted from the mice, measured, cut into small pieces of 1-2 mm and transferred into the gentleMACS Tube containing the sterile saline. […] Animals were observed and monitored for any discomfort and immobility day by day.
Isolation of human PBMCs: Human PBMCs were isolated from heparinized venous blood samples of the same esophagus adenocarcinoma patient by density gradient centrifugation method using Ficol Histopaque (Sigma). […] The total cell number and the number of viable cells were evaluated. […] On the day of injection, the cells were thawed, washed twice in order to dilute possible DMSO residues by the addition of PBS and centrifugation (600 g for 10 minutes, RT) and viable cells were counted. […]
The length (l) and the width (w) of the tumors were measured 4-5 times a week and the volumes of the tumors were calculated as follows: v=lw^2/2. […]

SMILES: Oc1cc(CNC(=S)/C=C/c2ccc(O)c(O)c2Br)cc(O)c1O [Compound 4]
- Tumor response / tumor progression (tumor volume, FIG. 1): no response
